Data on one compound can be found in patent US20230310352A1, “NOVEL COMPOSITIONS AND METHODS FOR THE TREATMENT OF LUNG FIBROSIS” (LAURENT PHARMACEUTICALS INC., priority 2020, published 2023).

In test [1] the test system is bleomycin-induced lung fibrosis. The experiment in a line: Intratracheal bleomycin mouse model of pulmonary fibrosis (28-day model). The test is classed as in vivo, C57BL/6N mice. The note with it: Day 28; oral once daily Day 7 to Day 28; fenretinide 10 mg/kg (as LAU-7b SDI), pirfenidone 100 mg/kg. An excerpt:
Oral administration of a solid, amorphous dispersion formulation of fenretinide (LAU-7b SDI) was provided as a treatment for reduction of pulmonary fibrosis, in a mouse model of lung fibrosis induced via a single intratracheal administration of bleomycin, for 21 days. The LAU-7b SDI formulation was obtained by spray drying and contains fenretinide in amorphous form in a solid dispersion comprising a matrix polymer, based on the following formula: 40% fenretinide, 59.6% povidone (KOLLIDON® 30), 0.24% butylated hydroxyanisole (BHA) and 0.16% butylated hydroxytoluene (BHT).
Male C57BL/6N mice from Charles River Laboratories, 10-12 weeks of age, weighing around 20-25 g, at the time of their enrolment, received 50 μL of bleomycin sulfate (2.0 mg/kg) by a single intratracheal instillation on Day 1 of the study to induce lung fibrosis. The sham group received an equivalent volume of 0.9% saline. On Day 7 postbleomycin instillation, the animals were randomized in groups of animals based on their body weight loss and enhanced pause airway resistance estimate (PenH value), while the sham group had 6 mice. Oral dosing by gavage (10 mL/kg) with the vehicle (sham and BLM control groups), the test articles (fenretinide 10 mg/kg), and the reference compound (pirfenidone 100 mg/kg) were administered once daily starting from Day 7 to Day 28. Two hours following the last dose on Day 28, all mice were sacrificed, the lungs of each mouse harvested, flushed with 0.9% NaCl and inflated with 10% neutral buffered formalin solution. After embedding and mounting of the lung tissue (transversal slices of 5 μm thickness), the histology slides were stained with hematoxylin/eosin for the Ashcroft score evaluation by a treatment-blinded pathologist and with Sirius red staining for automated fibrosis quantification (Biocelvia, France).
The key endpoints evaluated in this study were Ashcroft score, pulmonary foci and collagen content obtained by histological assessment of the lung tissue at the end of the study. Statistical analysis was made on normally distributed data by one-way ANOVA followed by multiple comparisons (Fisher's LSD post hoc test) to assess the difference between the groups, using Graph Pad Prism Software version 8.0 (San Diego, CA, USA). Differences were considered statistically significant when P values were p<0.05 (*), or p<0.01 (**) or p<0.001 (***).
Ashcroft scale for the evaluation of bleomycin-induced lung fibrosis is the analysis of stained histological samples by visual assessment. The Ashcroft score was assessed in lung tissue collected on Day 28 by treatment-blinded pathologist on H&E stained lung tissue histology slides (3 cross sections/animal) and using the modified Ashcroft scale. Briefly, each lung section was scanned at a magnification of x100 (H&E staining), read by a blinded examiner, and graded from 0 (normal lung) to 8 (total fibrotic obliteration of the field). Criteria for grading lung fibrosis in Ashcroft scale are as follows: Grade 0=normal lung; Grade 1=minimal fibrous thickening of alveolar or bronchiolar walls; Grade 3=moderate thickening of walls without obvious damage to lung architecture; Grade 5=increased fibrosis with definitive damage to lung structure and formation of fibrous bands or small fibrous masses; Grade 7=severe distortion of structure and large fibrous area; Grade 8=total fibrous obliteration of lung fields. The mean value of the grades obtained for each of the three sections was used as the Ashcroft score. Ashcroft score, using the modified scale, is a reliable and reproducible method of visual quantification of bleomycin induced lung fibrosis in H&E stained histological lung sections based on description of the general morphology of alveolar septa and lung structure. […]

Test [2] shares this test system. The experiment in a line: Intratracheal bleomycin mouse model of pulmonary fibrosis (21-day model). The test is classed as in vivo, C57BL/6N mice. The following applies: Day 21; oral once daily for 14 days; fenretinide 10 mg/kg (as LAU-7b SDI), pirfenidone 100 mg/kg. On the procedure:
Oral administration of a solid amorphous dispersion formulation of fenretinide (LAU-7b SDI) was evaluated in treating and/or reducing pulmonary fibrosis in mouse model of lung fibrosis induced via a single intratracheal administration of bleomycin followed by vehicle, fenretinide (LAU-7b SDI) or pirfenidone oral treatment for 21 days. The LAU-7b SDI formulation was obtained by spray drying and contains fenretinide in amorphous form in a solid dispersion comprising a matrix polymer, based on the following formula: 40% fenretinide, 59.6% povidone (KOLLIDON® 30), 0.24% butylated hydroxyanisole (BHA) and 0.16% butylated hydroxytoluene (BHT).
Male C57BL/6N mice from Charles River Laboratories, 10-12 weeks of age, weighing around 20-25 g, at the time of their enrolment, received 50 μL of bleomycin sulfate (2.0 mg/kg) by a single intratracheal instillation on Day 1 of the study. The Sham group received an equivalent volume of 0.9% saline. On Day 7 post-bleomycin instillation the animals were randomized in groups of 8 animals based on their body weight loss and Penh value. Oral dosing by gavage (10 mL/kg) with the vehicle (sham and BLM Control groups), LAU-7b SDI (fenretinide at 5 mg/kg and 10 mg/kg dose), and the reference compound (pirfenidone 100 mg/kg) were initiated once daily starting from Day 7 to Day 21. Two hours following the last dose on Day 21 all the mice were sacrificed, the lungs of each mouse were harvested, flushed with 0.9% NaCl and inflated with 10% neutral buffered formalin solution. After embedding and mounting of the lung tissue (transversal slices of 5 μm thickness), the histology slides were stained with hematoxylin/eosin for the Ashcroft score evaluation by a treatment-blinded pathologist, and with Sirius red staining for automated fibrosis quantification (Biocellvia, France).
As in Example 4, the key endpoints evaluated in this study were the Ashcroft score, pulmonary foci and collagen content obtained by histological assessment of the lung tissue at the end of the study. Statistical analysis was made on normally distributed data by one-way ANOVA followed by multiple comparisons (Fisher's LSD post hoc test) to assess the difference between the groups, using Graph Pad Prism Software version 8.0 (San Diego, CA, USA). Differences were considered statistically significant when P values were p<0.05 (*), or p<0.01 (**) or p<0.001 (***). The Ashcroft score was assessed in the lung tissue by treatment-blinded pathologist on the H&E stained histology slides (2 cross sections/animal) and using the modified Ashcroft scale. Briefly, each lung section was scanned at a magnification of ×100 (H&E staining), and graded from 0 (normal lung) to 8 (total fibrotic obliteration of the field). The mean value of the grades obtained for each of the two sections was used as the Ashcroft score.
Pulmonary foci (fibrotic tissue) and lung collagen content were quantified in the Sirius red stained lung tissue histology sections by high resolution, automated digital image analysis (Biocellvia, France) on Day 21 after lung fibrosis induction by bleomycin (BLM) instillation and following a 14-day oral gavage treatment with LAU-7b SDI (fenretinide, two doses), pirfenidone (reference drug) or vehicle only. Full field analysis of 2 lung sections per animal was conducted and the results were expressed as a mean percentage of total surface. This test is considered highly reliable, offering reproducible and observer-independent assessment of quantitative analysis of fibrosis.

As to `Cc1ccc(=O)n(-c2ccccc2)c1` [pirfenidone], in test [1], the “Ashcroft score vs BLM control” value is on record as “did not induce significant improvement”; the “percentage of collagen content in lung tissue, automated Sirius red analysis, vs BLM control” value was “significantly reduced”; the “percentage of pulmonary foci (fibrotic tissue), automated Sirius red analysis, vs BLM control” value was “nonsignificant effect”. Moreover, in test [2], the “Ashcroft score vs BLM control” value is “reduced significantly”; the “percentage of collagen content, automated Sirius red analysis, vs BLM control” value is listed as “did not induce statistically significant reduction”; the “percentage of pulmonary foci, automated Sirius red analysis, vs BLM control” value is “did not induce statistically significant reduction”.
